System: nose bleeding
Test: Nose bleeding after abrasion of the nasal passage, checked by blowing nose and dabbing with tissue
Type: in vivo
Details: visual check
From the text: Nose bleeding was caused by creating an abrasion to the nasal passage of a subject by use of a cotton swab irritating the nasal passage. The subject then blew their nose vigorously. The first test was to create an abrasion and pinching the nostril with no application of any product. Bleeding was checked at multiple time points, including the after 30 seconds, 60 seconds and 90 seconds by blowing ones nose 3 times and dabbing the area with a tissue to see if there was continued perfuse bleeding. […] After 90 seconds, the first test was then concluded. Next, the effect of glycerin on nose bleeding was determined. Glycerin was applied to the nasal passage after bleeding had started. Bleeding was checked at multiple time points, including the after 30 seconds, 60 seconds and 90 seconds by blowing ones nose 3 times and dabbing the area with a tissue to see if there was continued perfuse bleeding. […] After 90 seconds, the second test was then concluded. The effect of the disclosed clotting agent that included the active ingredients of […] betonica, achillea millefolium, marrubium vulgare, and urtica dioica application on nose bleeding was then determined. Bleeding was checked at multiple time points, including after 30 seconds, 60 seconds and 90 seconds by the subject blowing their nose 3 times and dabbing the area with a tissue to see if there was continued perfuse bleeding. […] After 90 seconds, there was no bleeding in the nasal passage. This part of the test was then concluded.

Measured: bleeding in the nasal passage

OCC(O)CO [Glycerin]
bleeding continued: after 30 seconds, applied to nasal passage after bleeding had started | after 60 seconds (1 minute) | after 90 seconds
